Data from patent publication US20130065964A1, “PERITONEAL DIALYSIS SOLUTION” (UNIVERSIDAD DE CASTILLA LA MANCHA, priority 2010, published 2013).

What was measured:
p38 MAPK = assay: Phosphorylation of p38 MAPK by Western blot; assay type: cell-based; details: rat PMCs, D-glucose 50 mM, FIG. 8
Excerpt: Densitometric analysis of the phosphor-p38 levels normalized with respect to the controls (C). The data is expressed as mean±SEM, n=3. * p<0.05 compared to untreated cells (control). # p<0.05, compared to cells treated with D-glucose in the presence of carrier (0).
Rat peritoneal mesothelial cells were isolated by enzymatic digestion in accordance with protocols described in Hjelle J T, Golinska B T, Waters D C, et al. Perit Dial Int 1989; 9: 341-7. Briefly, female rats weighing 200-400 g of the Spragle-Dawley strain were sacrificed pursuant to Royal Decree 1201/2005, of 10 Oct., on protection of animals used for experimental and other scientific purposes. The abdominal cavity was quickly opened and the abdominal wall (peritoneum and smooth muscle) extracted under sterile conditions. […]
In order to obtain the total protein of the cell cultures, the culture medium was collected and replaced with PBS. […] The protein content of the cell lysates was determined using the Bradford method, following the standard protocol (Vorobiov M, Malki M, Shnaider A, et al. Perit Dial Int 2008; 28: 648-54). A quantity of 20 μg of protein/well of each sample was loaded onto 10% polyacrylamide gels. […] Band intensity was quantified by grey levels using an appropriate image analysis system (Quantity One).

peritoneum = assay: Chronic peritoneal dialysis in rats, peritoneal equilibrium test (PET); assay type: in vivo, rat; details: rats dialysed daily for four weeks with PDF, aliskiren 0.1 or 1 mg/Kg, FIGS. 12 and 13
Description: The rats were exposed daily for four weeks to carrier (saline serum), 1.5% PDF, 2.3% PDF or 4.5% PDF supplemented by carrier, 0.1 mg/Kg aliskiren or 1 mg/Kg aliskiren. The data are expressed as mean±SEM, n=6 rats per group. * p<0.05, compared to the group treated with carrier in the absence of aliskiren (carrier). # p<0.05, compared to their respective groups treated with PDFs in the absence of aliskiren. […] The rats were exposed daily for four weeks to carrier (saline serum), 1.5% PDF, 2.3% PDF or 4.5% PDF supplemented by carrier, 0.1 mg/Kg aliskiren or 1 mg/Kg aliskiren. The data is expressed as mean media±SEM, n=6 rats per group. * p<0.05, compared to the group treated with carrier in the absence of aliskiren (carrier). # p<0.05, compared to their respective groups treated with PDFs in the absence of aliskiren. […] Their body weight was measured at the start and end of the experimental period. […] The concentrations of creatinine and glucose in the serum and dialysate were measured using enzymatic methods. The peritoneal transport of solutes was calculated, on one hand, as the glucose concentration in the dialysate 2 hours after the PET relative to the initial glucose concentration in the PDF (D2/D0 glucose) and, on the other, as the dialysate/plasma creatinine concentration ratio (D2/P2 creatinine) 2 h after the PET. […]

COCCCOc1cc(C[C@@H](C[C@H](N)[C@@H](O)C[C@H](C(=O)NCC(C)(C)C(N)=O)C(C)C)C(C)C)ccc1OC [aliskiren]
phosphorylation of protein p38 (p38 MAPK): prevented
peritoneal damage in vivo (D2/D0 glucose, D2/P2 creatinine) (peritoneum): reduced peritoneal damage
